The record followed here is patent publication US5354913A, “Optically active phenol derivatives and preparation thereof” (Takeda Chemical Industries, Ltd., priority 1992, dated 1994).

Each structure is given as a SMILES string.

The subject of one data set is guinea-pig platelets. Description: U-46619 (thromboxane A2 mimic)-induced aggregation in guinea-pig platelets (Experiment 1). The data set is classed as cell-based. As to conditions: guinea-pig PRP, U-46619 3×10^-7 M. As to the method: Thromboxane A2 antagonistic activity Effect on thromboxane A2 minic (U-46619) - induced aggregation in guinea-pig platelets.
(§1) Method: Blood was collected in 3.15% sodium citrate (0.1 ml for 0.9 ml of blood) by aortic puncture from anesthetized guinea-pigs. Citrated blood samples were centrifuged at 950 rpm for 10 minutes and 2,000 rpm for 10 minutes at room temperature to obtain platelet-rich plasma (PRP) and platelet-poor plasma (PPP), respectively. The platelet count of PRP was adjusted to 5,000,000/μl with PPP. Platelet aggregation was measured with a photometer (Hematracer 6, Niko Bioscience, Japan). PRP (250 μl) was preincubated at 37° C. for 2 minutes and then incubated for 2 minutes with drug solution (25 μl), followed by stimulation with U-46619 (25 μl). Effect of drug was shown as the percent inhibition of maximal aggregation of drug-treated group versus that of control group. The concentration of U-46619 was chosen to obtain submaximal aggregation in each PRP (3×10^-7 M).

The next data set has as its system human platelets. The data set is described as follows: U-46619 (thromboxane A2 mimic)-induced aggregation in human platelets (Experiment 2). The data set is classed as cell-based. The conditions noted are these: Platelet, U-46619 10^-5 ~3×10^-5 M; for inhibition at 0.3 µM: 3 × 10^-7 M; for inhibition at 0.1 µM: 10^-7 M. The procedure:
Thromboxane A2 antagonistic activity Effect on thromboxane A2 minic (U-46619) - induced aggregation in human platelets.
as §1, with “300,000/μl” for “5,000,000/μl”, “(10^-5 ~3×10^-5” for “(3×10^-7”

In data set [1] the test system is guinea pig tracheal strip. Description: Inhibitory effect on U-46619 (TXA2 mimic)-induced contraction in guinea pig tracheal strip (Experiment 3). The conditions noted are these: Cavia porcellus; U-46619 10^-8 M; compound added 1 minute before; read-out: IC50 (Concentration for 50% inhibition). As to the method: Inhibitory effect on U-46619 (TXA2 minic) - induced contraction in guinea pig tracheal strip
Method: Guinea pig tracheae were removed, and tracheal strips were prepared. Each strip was placed in a 10 ml organ bath containing Tyrode's solution aerated with 5% CO2 -95% O2 gas at 37° C. The tracheal strip was placed under resting tension of 1 g. The contractile response of the strip to thromboxane A2 minic U-46619 (10^-8 M) were examined. The strip was treated with the test compound for 1 minute before the addition of U-46619.
Result: The results are shown in Table 10 as the concentration for 50% inhibition (IC50).

For data set [2], the system named is U-46619 (TXA2 minic) - induced bronchoconstriction in guinea pig. Description: Inhibitory effect on U-46619 (TXA2 mimic)-induced bronchoconstriction in guinea pig (Experiment 4). In kind it is in vivo. The conditions noted are these: orally 1 hour before U-46619 (10 μg/kg), p < 0.01 vs control group. As to the method: Inhibitory effect on U-46619 (TXA2 minic) - induced bronchoconstriction in guinea pig.
Method: Six male Hartley guinea pig were used per one group. The guinea pig anesthetized with urethane (1.5 g/kg, i.p.) was fixed in a dorsal position, subjected to tracheotomy and connected to a respirator through a cannula. A side branch of the tracheal cannula was connected to a respirator (Harvard apparatus rodent respirator Type 680) at the rate of 70 strokes/min. and a constant volume of 3 to 5 ml.
Inflation pressure was kept constant at 10 cm H2 O.
After treatment with gallamine triethiodide (1 mg/kg, i.v.), U-46619 (10 μg/kg) dissolved in a physiolosical saline solution was given through a carotid cannula and the airway resistance was measured by the overflow technique of Konzett-Rossler method (Konzett, H. and Rossler, R., Naunyn-Schmiedegerg's Arch, Exp. Path. Pharmak., 195, 71-74 (1940)). A test compound was suspended in 5% gum arabic solution and was administered orally 1 hour before the tratment with U-46619.

The test system of another data set is rats. Description: Oral toxicity in rats, 2 weeks. The data set is classed as in vivo, rat. The conditions noted are these: orally, 1000 mg/kg/day for 2 weeks, 3 rats. As to the method:
Toxicity of the derivatives of the present invention is low. For example, in case that (R)-7-(4-fluorophenyl)-7-(5-hydroxy-6,7-dimethyl-l-oxoindan-4-yl)heptanoicacid was administered orally to 3 rats at a dose of 1000 mg/kg/day for 2 weeks, no rat died. The derivatives of the present invention can be safely administered orally or parenterally as they are or as pharmaceutical compositions of known forms obtained by admixing them with known pharmaceutically acceptable carriers, excipients and the like, for example, tablets, capsules (including soft capsules and micro-capsules), liquids, injection preparations, suppositories and the like, according to pharmaceutically acceptable methods. The dosage is varied according to patients, routes of administration, conditions of diseases to be treated and the like. However, in the case of oral administration to, for example, an adult patient, usually, a dose per one administration is about 0.1 to 20 mg/kg of the body weight, perferably, about 0.1 to 10 mg/kg of the body weight and, conveniently, the administration is carried out one to two times per day.

Regarding `Cc1c(C)c(CO)c(C)c([C@H](CCCCCC(=O)O)c2ccc(F)cc2)c1O` [Compound 20, (R)-7-(4-fluorophenyl)-7-(2-hydroxy-5-hydroxylmethyl-3,4,6-trimethylphenyl)heptanoic acid], the “% Inhibition of aggregation” value in the data set on guinea-pig platelets (3 × 10^-8 M) was determined as 12%; in the data set on guinea-pig platelets (10^-7 M), 77%; with guinea-pig platelets (10^-8 M), 3%. The inhibition at 0.3 µM with human platelets turned out to be 100%. The compound also had an inhibition at 0.1 µM in the data set on human platelets of 48%.
For `Cc1c(C)c2c(c([C@H](CCCCCC(=O)O)c3ccc(F)cc3)c1O)CCC2=O` [Compound 28, (R)-7-(4-fluorophenyl)-7-(5-hydroxy-6,7-dimethyl-1-oxoindan-4-yl)heptanoic acid], the “% Inhibition of aggregation” value in the data set on guinea-pig platelets (3 × 10^-8 M) is 5%; in the data set on guinea-pig platelets (10^-7 M), 36%; in the data set with guinea-pig platelets (10^-8 M) it was 0%. The inhibition at 0.3 µM with guinea-pig platelets (Cavia porcellus, Platelet, 3 × 10^-7 M) amounted to 89%; with human platelets, 100%. For the same compound, at 0.03 µM the inhibition in the data set with human platelets (3 × 10^-8 M) was 30%. Moreover, in the data set with human platelets, testing at 0.1 µM gave an inhibition of 78%. In the data set on human platelets (10^-8 M), this compound registered an inhibition at 0.01 µM of 13%. For the same compound, the IC50 in data set [1] amounted to 0.7 nM. Also, the “% Inhibition” value in data set [2] (0.31 mg/kg) and in data set [2] (1.25 mg/kg) was 84% in each case. In the data set on rats, the mortality entry is on record as “no rat died”.

One may read the inhibition as the drop in the measured response relative to a control, in per cent. As usually defined, the % Inhibition is the relative decrease from the control value, in per cent.
